Reference: ChEMBL document CHEMBL1949579, “2-Arylbenzofuran, flavonoid, and tyrosinase inhibitory constituents of Morus yunnanensis” (J Nat Prod, 2012)

Each compound was assayed against T1, Tyrosinase (Agaricus bisporus, UniProt O42713) (assay: Inhibition of mushroom tyrosinase assessed as oxidation of L-dopa by spectrophotometric analysis).
T1 sequence (O42713 whole entry): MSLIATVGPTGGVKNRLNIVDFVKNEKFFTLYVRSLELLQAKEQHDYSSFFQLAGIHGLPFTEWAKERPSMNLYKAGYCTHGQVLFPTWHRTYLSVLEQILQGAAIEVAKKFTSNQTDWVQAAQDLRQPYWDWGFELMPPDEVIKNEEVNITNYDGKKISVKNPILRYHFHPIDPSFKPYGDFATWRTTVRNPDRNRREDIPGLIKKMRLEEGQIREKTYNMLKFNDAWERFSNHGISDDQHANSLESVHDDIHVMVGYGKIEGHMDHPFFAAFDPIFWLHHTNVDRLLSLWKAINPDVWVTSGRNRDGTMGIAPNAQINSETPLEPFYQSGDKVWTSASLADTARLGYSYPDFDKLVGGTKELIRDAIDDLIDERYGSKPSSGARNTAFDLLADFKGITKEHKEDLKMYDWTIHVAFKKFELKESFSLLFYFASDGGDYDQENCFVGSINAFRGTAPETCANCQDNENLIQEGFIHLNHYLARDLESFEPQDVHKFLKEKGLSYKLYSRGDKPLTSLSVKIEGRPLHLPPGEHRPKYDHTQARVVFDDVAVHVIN

Row | SMILES | IC50 [nM]
1 | COc1ccc2c(c1CCO)O[C@@H](c1ccc(O)cc1O)CC2 | 120
2 | CC(C)=CCc1c(O)ccc2c1O[C@H](c1ccc(O)cc1O)CC2 [MORUSYUNNANSINS F] | 150
3 | COc1ccc2c(c1C/C=C(\C)CO)O[C@H](c1ccc(O)cc1O)CC2 [MORUSYUNNANSINS E] | 1430

The compounds below were run against T2, Tyrosinase (Agaricus bisporus) (UniProt O42713) (assay: Inhibition of mushroom tyrosinase assessed as oxidation of L-dopa at 25 uM by spectrophotometric analysis).
T2 sequence (whole entry): T1 sequence (O42713 whole entry)

Row | SMILES | inhibition [%]
4 | COc1ccc(CCC(c2ccc(O)cc2O)c2cc([C@@H]3CCc4ccc(OC)c(CC=C(C)C)c4O3)c(O)cc2O)c(O)c1CC=C(C)C (some centres not stated) | < 50
5 | COc1ccc(CCC(c2ccc(O)cc2O)c2cc([C@H]3CCc4ccc(OC)c(CC=C(C)C)c4O3)c(O)cc2O)c(O)c1CC=C(C)C (some centres not stated) | < 50
6 | COc1ccc([C@@H]2CCc3ccc(O)c(CC=C(C)C)c3O2)c(O)c1 | < 50
7 | CC(C)=CCc1c(O)ccc2c1O[C@H](c1ccc(O)cc1)CC2 | < 50
